One experiment has as its target EED (Homo sapiens, UniProt O75530). Kind of experiment: EED TR-FRET Binding Assay (modified LanthaScreen competition assay). The protocol: Compounds were tested in a modified LanthaScreen competition assay.
The following buffer was used to set up the binding reactions: 20 mM Tris-HCl pH 7.5, 200 mM NaCl, 0.01% Tween-20, 10 uM DTT (dithiothreitol), and 0.05% BSA (bovine serum albumin), with the DTT and BSA added fresh prior to initiating the binding assay. […] The reactions were then incubated for 1 hour at 25° C. in a humidified chamber prior to detection on the Perkin Elmer Envision plate reader using a Lanthascreen TR-FRET protocol.
(In TR-FRET formats the signal depends on donor and acceptor labels being close together.)

The test system of a further experiment is Pfeiffer cells. In words: CTG cell viability assay (CellTiter-Glo). The conditions noted are these: Homo sapiens, 240 h; Pfeiffer cells, 10 days with compound, CellTiter-Glo; read-out: Cell Proliferation IC50. It is filed as cell-based. The protocol:
1,000 cells were plated into each well of 96-well Corning CellBing cell culture plates and incubated overnight at 37° C. in a humidified CO2 incubator. […] The cell culture plates were then incubated for 10 more days. CTG cell viability assay was performed on the cell culture samples by using CellTiter-Glo® Luminescent Cell Viability Assay Kit (Promega).

Chain of EED (O75530 whole entry): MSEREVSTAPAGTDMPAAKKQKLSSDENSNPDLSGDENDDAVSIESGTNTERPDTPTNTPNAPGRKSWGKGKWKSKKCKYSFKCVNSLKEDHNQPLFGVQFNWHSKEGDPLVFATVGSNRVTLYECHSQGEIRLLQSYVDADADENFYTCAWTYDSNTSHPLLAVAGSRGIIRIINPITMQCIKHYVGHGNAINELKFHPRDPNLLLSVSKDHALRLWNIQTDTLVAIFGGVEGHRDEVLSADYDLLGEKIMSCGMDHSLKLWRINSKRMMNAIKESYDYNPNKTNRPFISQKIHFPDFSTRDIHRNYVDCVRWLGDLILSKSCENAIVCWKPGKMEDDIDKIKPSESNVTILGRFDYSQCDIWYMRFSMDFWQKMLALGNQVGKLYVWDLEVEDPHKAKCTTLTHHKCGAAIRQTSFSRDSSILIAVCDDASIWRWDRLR

Turning to `CN(C)[C@H]1CN(C2C[C@H](F)c3cccc(F)c32)C[C@@H]1c1ccc(S(C)(=O)=O)cc1` (mixture of isomers) [Example 30, rac-(3R,4S)-1-[(3S)-3,7-difluoro-2,3-dihydro-1H-inden-1-yl]-4-[4-(methanesulfonyl)phenyl]-N,N-dimethylpyrrolidin-3-amine], the values for the IC50 on EED and in the experiment on Pfeiffer cells were 0.0114 µM and 3.1 µM, respectively.

`CN(C)[C@H]1CN(C2CCc3cccc(F)c32)C[C@@H]1c1cn(C)c2cc(C(=O)N3C[C@H](O)[C@@H](O)C3)ccc12` (mixture of isomers) [Example 114, rac-[(3S,4S)-3,4-dihydroxypyrrolidin-1-yl]{3-[(3S,4R)-4-(dimethylamino)-1-(7-fluoro-2,3-dihydro-1H-inden-1-yl)pyrrolidin-3-yl]-1-methyl-1H-indol-6-yl}methanone]: the values for the IC50 on EED and in the experiment with Pfeiffer cells were 0.00558 µM and 3.13 µM, respectively.

As for `CN(C)[C@H]1CN(C2CCc3cccc(F)c32)C[C@@H]1c1cn(C)c2c(C(=O)N3CCC[C@H]3CO)cccc12` (mixture of isomers) [Example 116, rac-{3-[(3S,4R)-4-(dimethylamino)-1-(7-fluoro-2,3-dihydro-1H-inden-1-yl)pyrrolidin-3-yl]-1-methyl-1H-indol-7-yl}[(2S)-2-(hydroxymethyl)pyrrolidin-1-yl]methanone], the IC50 is 0.00177 µM on EED and 0.0996 µM in the experiment on Pfeiffer cells.

Consider `CN(C)[C@H]1CN(C2CCc3cccc(F)c32)C[C@@H]1c1cn(C)c2c(C(=O)N3CC[C@H](O)C3)cccc12` (mixture of isomers) [Example 118, rac-{3-[(3S,4R)-4-(dimethylamino)-1-(7-fluoro-2,3-dihydro-1H-inden-1-yl)pyrrolidin-3-yl]-1-methyl-1H-indol-7-yl}[(3S)-3-hydroxypyrrolidin-1-yl]methanone], for which the IC50 at EED is 0.00335 µM; in the experiment with Pfeiffer cells it was 0.298 µM.

As for `CN(C)[C@@H]1CN(C2CCc3cccc(F)c32)C[C@H]1c1ccc(C(N)=O)cc1` (mixture of isomers) [Example 35, rac-4-[(3R,4S)-4-(dimethylamino)-1-(7-fluoro-2,3-dihydro-1H-inden-1-yl)pyrrolidin-3-yl]benzamide], the IC50 at EED was 0.0068 µM; in the experiment with Pfeiffer cells, greater than 10 µM.

`CN(C)[C@@H]1CN(C2CCc3cccc(F)c32)C[C@H]1c1ccc(N2CCNCC2)cc1` (mixture of isomers) [Example 41, rac-(3S,4R)-1-(7-fluoro-2,3-dihydro-1H-inden-1-yl)-N,N-dimethyl-4-[4-(piperazin-1-yl)phenyl]pyrrolidin-3-amine]: the IC50 is 0.00199 µM at EED and 0.188 µM with Pfeiffer cells.

For the molecule `CC(=O)N1CCN(c2ccc([C@H]3CN(C4CCc5cccc(F)c54)C[C@@H]3N(C)C)cc2C)CC1` (mixture of isomers) [Example 60, rac-1-(4-{4-[(3S,4R)-4-(dimethylamino)-1-(7-fluoro-2,3-dihydro-1H-inden-1-yl)pyrrolidin-3-yl]-2-methylphenyl}piperazin-1-yl)ethan-1-one], the IC50 on EED came to 0.00662 µM; in the experiment with Pfeiffer cells, 0.302 µM.

Consider `CN(C)[C@@H]1CN(C2CCc3cccc(F)c32)C[C@H]1c1ccc(-c2ncco2)cc1` (mixture of isomers) [Example 66, rac-(3S,4R)-1-(7-fluoro-2,3-dihydro-1H-inden-1-yl)-N,N-dimethyl-4-[4-(1,3-oxazol-2-yl)phenyl]pyrrolidin-3-amine], for which the IC50 on EED was 0.00268 µM; in the experiment on Pfeiffer cells it was 1.13 µM.

In the case of `Cc1noc(-c2ccc([C@H]3CN(C4CCc5cccc(F)c54)C[C@@H]3N(C)C)cc2)n1` (mixture of isomers) [Example 67, rac-(3R,4S)-1-(7-fluoro-2,3-dihydro-1H-inden-1-yl)-N,N-dimethyl-4-[4-(3-methyl-1,2,4-oxadiazol-5-yl)phenyl]pyrrolidin-3-amine], the IC50 at EED came out at 0.00306 µM; in the experiment on Pfeiffer cells it was 1.63 µM.

As for `CN(C)[C@H]1CN(C2CCc3cccc(F)c32)C[C@@H]1c1cn(C)c2ccncc12` (mixture of isomers) [Example 141, rac-(3R,4S)-1-(7-fluoro-2,3-dihydro-1H-inden-1-yl)-N,N-dimethyl-4-(1-methyl-1H-pyrrolo[3,2-c]pyridin-3-yl)pyrrolidin-3-amine], the IC50 at EED is 0.0468 µM.

At EED, `CN(C)[C@H]1CN(C2CCc3cccc(F)c32)C[C@@H]1C1CCOCC1` (mixture of isomers) [Example 144, rac-(3R,4S)-1-(7-fluoro-2,3-dihydro-1H-inden-1-yl)-N,N-dimethyl-4-(oxan-4-yl)pyrrolidin-3-amine] displayed an IC50 of 0.0121 µM.

For `CN(C)[C@@H]1CN(C2CCc3cccc(F)c32)C[C@H]1c1ccc(N2CCNCC2)nc1` (mixture of isomers) [Example 145, rac-(3S,4R)-1-(7-fluoro-2,3-dihydro-1H-inden-1-yl)-N,N-dimethyl-4-[6-(piperazin-1-yl)pyridin-3-yl]pyrrolidin-3-amine], the IC50 on EED amounted to 0.0052 µM.

As for `CN(C)[C@H]1CN([C@H]2CCc3ccccc32)C[C@@H]1c1ccc(S(C)(=O)=O)cc1` [Example 9, (3R,4S)-1-[(1S)-2,3-dihydro-1H-inden-1-yl]-4-[4-(methanesulfonyl)phenyl]-N,N-dimethylpyrrolidin-3-amine], on EED, the IC50 came out at 0.0101 µM.

In turn, `CN(C)[C@@H]1CN([C@H]2CCc3ccccc32)C[C@H]1c1ccc(S(C)(=O)=O)cc1` [Example 10, (3S,4R)-1-[(1S)-2,3-dihydro-1H-inden-1-yl]-4-[4-(methanesulfonyl)phenyl]-N,N-dimethylpyrrolidin-3-amine] displayed an IC50 at EED of 0.29 µM.

On EED, `CN(C)[C@@H]1CN([C@H]2CC(O)c3cccc(F)c32)C[C@H]1c1ccc(S(C)(=O)=O)cc1` (stereo partly drawn) [Example 33, (3S)-3-{(3S,4R)-3-(dimethylamino)-4-[4-(methanesulfonyl)phenyl]pyrrolidin-1-yl}-4-fluoro-2,3-dihydro-1H-inden-1-ol] showed an IC50 greater than 50 µM.

In the case of `CC(=O)N1CCN(c2ccc([C@H]3CN(C4CCc5ccccc54)C[C@@H]3N(C)C)cc2)CC1` (stereo partly drawn) [Example 42, 1-(4-{4-[(3S,4R)-1-(2,3-dihydro-1H-inden-1-yl)-4-(dimethylamino)pyrrolidin-3-yl]phenyl}piperazin-1-yl)ethan-1-one], the IC50 at EED was greater than 50 µM.

As for `CC(=O)N1CCN(c2ccc([C@@H]3CN([C@H]4CCc5cccc(F)c54)C[C@H]3N(C)C)cc2)CC1` [Example 47, 1-[4-(4-{(3R,4S)-4-(dimethylamino)-1-[(1S)-7-fluoro-2,3-dihydro-1H-inden-1-yl]pyrrolidin-3-yl}phenyl)piperazin-1-yl]ethan-1-one], the IC50 at EED was 0.0423 µM.

`CC(=O)N1CCN(c2ccc([C@@H]3CN([C@@H]4CCc5cccc(F)c54)C[C@H]3N(C)C)cc2)CC1` [Example 48, 1-[4-(4-{(3R,4S)-4-(dimethylamino)-1-[(1R)-7-fluoro-2,3-dihydro-1H-inden-1-yl]pyrrolidin-3-yl}phenyl)piperazin-1-yl]ethan-1-one] showed an IC50 at EED of 0.018 µM.

Consider `CN(C)[C@@H]1CN(C2CCc3cccc(F)c32)C[C@H]1c1ccc(N2CCN(C(=O)OC(C)(C)C)CC2)cc1` (stereo partly drawn) [Example 50, tert-butyl 4-{4-[(3R,4S)-4-(dimethylamino)-1-(7-fluoro-2,3-dihydro-1H-inden-1-yl)pyrrolidin-3-yl]phenyl}piperazine-1-carboxylate], for which the IC50 at EED was 0.00115 µM.

In turn, `CN(C)[C@@H]1CN(C2CCc3cccc(F)c32)C[C@H]1c1cn(C)c2c(C(=O)O)cccc12` (stereo partly drawn) [Example 81, 3-[(3R,4S)-4-(dimethylamino)-1-(7-fluoro-2,3-dihydro-1H-inden-1-yl)pyrrolidin-3-yl]-1-methyl-1H-indole-7-carboxylic acid] had an IC50 at EED of 0.0982 µM.

As to `COC(=O)c1cccc2c([C@H]3CN(C4CCc5cccc(F)c54)C[C@@H]3N(C)C)cn(C)c12` (stereo partly drawn) [Example 84, methyl 3-[(3S,4R)-4-(dimethylamino)-1-(7-fluoro-2,3-dihydro-1H-inden-1-yl)pyrrolidin-3-yl]-1-methyl-1H-indole-7-carboxylate], at EED, the IC50 turned out to be 0.000296 µM.

Turning to `COC(=O)c1cccc2c([C@@H]3CN(C4CCc5cccc(F)c54)C[C@H]3N(C)C)cn(C)c12` (stereo partly drawn) [Example 86, methyl 3-[(3R,4S)-4-(dimethylamino)-1-(7-fluoro-2,3-dihydro-1H-inden-1-yl)pyrrolidin-3-yl]-1-methyl-1H-indole-7-carboxylate], at EED, the IC50 was found to be 0.0148 µM.

As for `CN(C)[C@H]1CN(C2CCc3ccc(F)c(F)c32)C[C@@H]1c1cn(C)c2ccccc12` (stereo partly drawn) [Example 96, (3R,4S)-1-(6,7-difluoro-2,3-dihydro-1H-inden-1-yl)-N,N-dimethyl-4-(1-methyl-1H-indol-3-yl)pyrrolidin-3-amine], the IC50 on EED is 0.00426 µM.

`CN(C)[C@H]1CN(C2CCc3cccc(O)c32)C[C@@H]1c1cn(C)c2ccccc12` (stereo partly drawn) [Example 97, 3-[(3R,4S)-3-(dimethylamino)-4-(1-methyl-1H-indol-3-yl)pyrrolidin-1-yl]-2,3-dihydro-1H-inden-4-ol]: at EED, the IC50 amounted to 0.0336 µM.

In turn, `Cc1cccc2c1C(N1C[C@H](c3cn(C)c4ccccc34)[C@@H](N(C)C)C1)CC2` (stereo partly drawn) [Example 100, (3R,4S)-N,N-dimethyl-1-(7-methyl-2,3-dihydro-1H-inden-1-yl)-4-(1-methyl-1H-indol-3-yl)pyrrolidin-3-amine] had an IC50 at EED of 0.0584 µM.

`CN(C)[C@@H]1CN(C2CCc3cccc(F)c32)C[C@H]1c1cn(C)c2c(C(=O)N3CC(F)C3)cccc12` (stereo partly drawn) [Example 104, {3-[(3R,4S)-4-(dimethylamino)-1-(7-fluoro-2,3-dihydro-1H-inden-1-yl)pyrrolidin-3-yl]-1-methyl-1H-indol-7-yl}(3-fluoroazetidin-1-yl)methanone] had an IC50 on EED of 0.0153 µM.
